This experiment deals with FIGNL1∆N (Homo sapiens, UniProt Q6PIW4). The settings on record: activity enhanced by RAD51 or its N-terminal peptide.
Sequence of FIGNL1∆N (Q6PIW4 287-674): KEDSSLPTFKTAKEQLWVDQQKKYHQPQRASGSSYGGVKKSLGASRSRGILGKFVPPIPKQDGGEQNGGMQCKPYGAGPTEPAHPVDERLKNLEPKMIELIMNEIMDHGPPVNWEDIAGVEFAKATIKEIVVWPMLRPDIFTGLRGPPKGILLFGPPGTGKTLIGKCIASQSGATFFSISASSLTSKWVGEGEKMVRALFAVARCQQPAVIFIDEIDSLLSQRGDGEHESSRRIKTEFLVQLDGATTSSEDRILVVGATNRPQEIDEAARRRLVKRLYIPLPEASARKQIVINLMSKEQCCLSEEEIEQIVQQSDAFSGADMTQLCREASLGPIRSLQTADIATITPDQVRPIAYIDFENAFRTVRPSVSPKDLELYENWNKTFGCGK

With `Nc1ncnc2c1ncn2[C@@H]1O[C@H](COP(=O)(O)OP(=O)(O)OP(=O)(O)O)[C@@H](O)[C@H]1O` [ATP], the ATPase assay entry is given as “The ATPase activity of FIGNL1∆N is enhanced in the presence of RAD51”.

For the origin of these results see publication PMC11275795 (bioRxiv, 2024).
